Reference: patent US20230119479A1, “A HISTONE DEACETYLASE INHIBITOR HAVING A NITROGEN-CONTAINING AROMATIC HETEROCYCLYL GROUP” (SHIONOGI & CO., LTD., priority 2019, published 2023)
Like-named read-outs stand apart in the source and are kept apart here.

What was measured:
[1] = test system: HDACs other than HDAC2 (HDAC2 knockout K562 cells); experiment: Evaluation of HDAC2 selectivity: H3K9 histone acetylation in HDAC2 knockout K562 cells (AlphaLISA); assay type: cell-based; settings: Homo sapiens, maximum concentration 83.3 μM, 100% = SAHA-treated group, read-out: maximum inhibition rate (H3K9 histone acetylation);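 also: 0% inhibition equals DMSO-treated group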
Method: Test Example 3: Evaluation of HDAC2 Selectivity
K562 cells were cultured in RPMI1640 medium (SIGMA, R8758) containing 10% FBS (Hyclone, SH30070.03) and 1% penicillin streptomycin (Nacalai Tesque, 26252-94). CompoZr (registered trademark) Zinc Finger Nuclease (Merck) targeting HDAC2 sequences was transfected into K562 cells by electroporation using Nucleofector (Lonza). The cells after transfection were subjected to limiting dilution, and DNA sequencing was performed on the cell clones in which mutations were detected by the PCR method. Cell clones lacking a base number that was not a multiple of 3 in both alleles were identified, and a single-cell cloning was performed on the cell clones to produce HDAC2 knockout K562 cells. It was confirmed that the expression of HDAC2 was not detected by Western blotting in the prepared cells.
By evaluating the H3K9 histone acetylation-enhancing activity of the test compound using HDAC2 knockout K562 cells, the inhibitory activity against HDACs other than HDAC2 was evaluated.
HDAC2 knockout K562 cells stored in liquid nitrogen were thawed and cultured in RPMI1640 medium (Nacalai Tesque, 30264-85) for 2 to 4 days. Using Echo555 (Beckman Coulter), the test compound was dispensed to the assay plate (Corning, 4513) at 37.5 nL/well, and then HDAC2 knockout K562 cells were seeded to 125 cells/4.5 μL/well, and stirred. At this time, the test compound was treated at 8 points (n=2) in the 3-fold dilution series from the maximum concentration of 83.3 μM. After culturing at 37° C. and 5% CO2 overnight, 1.5 μL/well of Lysis buffer (PerkinElmer, AL009F1) was added, and after incubating at room temperature for 15 minutes, 3 μL/well of Extraction buffer (PerkinElmer, AL009F2) was added and the mixture was incubated for 10 minutes at room temperature. Then, 5× antibody solution (prepared by diluting anti-H3K9 Acceptor beads (PerkinElmer, AL114M) 75-fold with a detection buffer prepared by diluting 10×Cell-Histone Detection buffer (PerkinElmer, AL009F3) 10-fold with ultrapure water, and diluting Biotinylated anti H3 antibody (PerkinElmer, AL118M) diluted 150 times with the detection buffer) was added at 3 μL/well, and after incubating at room temperature for 60 minutes, then 5× donor beads solution (prepared by diluting Streptavidin Donor beads (PerkinElmer, 6760002) 75 fold with the detection buffer) was added at 3 μL/well, and the mixture was incubated again at room temperature for 60 minutes, and then the emission value was measured using PHERAstar (BMG LABTECH) (excitation=680 nm, […]). […] For cell toxicity, cell viability rate was evaluated by the PrestoBlue method.

[2] = Platelet toxicity test using human blood progenitor cells (WST); assay type: cell-based; settings: human bone marrow CD34+ progenitor cells, maximum concentration 25 μM
Method: Test Example 2: Platelet Toxicity Test Using Human Blood Progenitor Cells
Human bone marrow CD34+ progenitor cells (Lonza, 2M-101B) stored at −80° C. were thawed, spun down at 150 g for 10 minutes at 20° C., and a medium (StemSpan Expansion Supplement, STEM CELL TECHNOLOGIES, ST-02696) to which cytokines (StemSpan SFEM II, STEM CELL TECHNOLOGIES, ST-09655) was added was added to adjust to 2×10^4/well, the mixture was seeded in 12well non-coat dish (Corning, 3513), was incubated for 10 days at 37° C., 5% CO2. After 10 days, the cells were collected and spun down at 150 g for 10 minutes at 20° C., and a medium (StemSpan Expansion Supplement) containing cytokines (StemSpan SFEM II) was added so that the number of cells became 2×10^5 cells/ml. 50 μl of the cell suspension was seeded to each well of a 96-well plate (Corning, 3596) and allowed to stand overnight in an incubator at 37° C., 5% CO2. The next day, 50 μl of the test compound was treated to each well and allowed to stand for 48 hours in the incubator at 37° C., 5% CO2 (n=2). At this time, the test compound dissolved in 100% DMSO was serially diluted with DMSO at a 3-fold ratio, and then a medium containing cytokine was added to adjust the final concentration to 25, 8.33, 2.78, 0.93, 0.31, 0.1 μM. After that, 10 μl of WST (Cell count reagent SF, Nacalai Tesque Inc., 07553-44) was added to each well, and the mixture was allowed to stand in the incubator for 4 hours at 37° C., 5% CO2, and then the multi-label reader 2030 ARVO X4 (PerkinElmer) was used to measure the absorbance. At this time, the absorbance at 450 nm and the absorbance at 620 nm were obtained, and the difference between 450 nm and 620 nm was used as the measured value. The measured values were analyzed by Excel and TIBCO Spotfire, and IC50 values were calculated. At this time, for control (−), the well without cells was set as n=6 for one row, and the average value was calculated, and for control (+), the well in which DMSO was added to the cells so as to have the same concentration as the compound treatment group was set as n=6 for one row, and the average value was calculated and corrected for each plate. For the test compound, the average value of n=2 was used.

[3] = target: T1, HDAC2 Human recombinant C-terminal FLAG-tag (Homo sapiens, UniProt Q92769); experiment: Measurement of HDAC2 enzyme inhibitory activity (HTRF); assay type: biochemical; settings: recombinant HDAC2, H3K9ac peptide
T1 construct: FLAG (C); purchased BPS Bioscience 50052
Summary of the method: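 Compounds were tested at 8 points in 3-fold dilutions from 99 μM final (n=2) against FLAG-tagged HDAC2 with biotinylated H3K9ac (1-21) peptide (0.6 μM as added). The reaction ran 3 h at room temperature in Tris pH 8.0 buffer, then was stopped with SAHA. Deacetylated product was detected by HTRF (Eu-anti-H3K9me0 antibody, streptavidin-XL665) as the 665/615-620 nm ratio.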

[4] = 3 hours room temperature, read-out: HDAC2 IC50

T1 sequence (Q92769 whole entry): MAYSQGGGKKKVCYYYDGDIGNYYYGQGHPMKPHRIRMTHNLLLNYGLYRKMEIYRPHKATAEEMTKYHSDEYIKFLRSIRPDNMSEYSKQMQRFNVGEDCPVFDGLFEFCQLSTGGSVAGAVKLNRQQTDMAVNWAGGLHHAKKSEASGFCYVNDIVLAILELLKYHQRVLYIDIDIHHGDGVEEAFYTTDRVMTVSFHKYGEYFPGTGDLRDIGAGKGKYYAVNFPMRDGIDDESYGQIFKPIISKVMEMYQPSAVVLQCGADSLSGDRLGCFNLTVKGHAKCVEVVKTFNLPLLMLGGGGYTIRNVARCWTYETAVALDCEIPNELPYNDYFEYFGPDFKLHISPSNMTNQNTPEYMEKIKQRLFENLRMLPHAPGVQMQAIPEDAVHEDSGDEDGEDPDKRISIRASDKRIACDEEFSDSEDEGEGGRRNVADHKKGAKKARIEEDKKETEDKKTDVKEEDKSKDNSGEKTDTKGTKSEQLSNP

Row | SMILES | inhibition at up to 83.3 µM [1] [%] | IC50 at 48 h [2] [nM] | IC50 [3, 4] [nM] | IC50 ([3]; read-out: IC50 (HDAC2)) [nM]
1 | Cn1cc(-c2ccc(C(=O)Nc3nc(-c4cccs4)ccc3N)nn2)cn1 [Compound I-028] | 8 | > 25000 | 230 | 
2 | Cn1cc(-c2ccc(N)c(NC(=O)c3cnc(-c4cnn(C)c4)cn3)c2)cn1 [Compound I-036] | 8 | > 25000 | 160 | 
3 | Nc1ccc(-c2ccc(F)nc2)cc1NC(=O)c1ccc(N2CCOCC2)cn1 [Compound I-093] |  | > 25000 | 130 | 
4 | Cn1cc(-c2ccc(N)c(NC(=O)c3ccc(C4CC4)cn3)c2)cn1 [Compound I-112] |  | > 25000 | 200 | 
5 | Nc1ccc(-c2ccc(F)nc2)cc1NC(=O)c1cnc(OCF)cn1 [Compound I-121] |  | > 25000 | 240 | 
6 | Nc1ccc(-c2ccc(F)nc2)cc1NC(=O)c1cnc(OCC2CC2)cn1 [Compound I-122] | 3 | > 25000 | 250 | 
7 | COc1ccc(C(=O)Nc2cc(-c3ccc(F)nc3)ccc2N)nc1 [Compound I-124] | 9 | > 25000 | 160 | 
8 | CCOCCOc1cnc(C(=O)Nc2cc(-c3ccc(F)nc3)ccc2N)cn1 [Compound I-126] | 5 | > 25000 | 140 | 
9 | COCCOc1ccc(C(=O)Nc2cc(-c3ccc(F)nc3)ccc2N)nc1 [Compound I-127] | 7 | > 25000 | 110 | 
10 | Nc1ccc(-c2ccc(F)nc2)cc1NC(=O)c1cnc(C2CC2)cn1 [Compound I-129] |  | > 25000 | 94 | 
11 | CCOc1cnc(C(=O)Nc2cc(-c3cnn(C)c3)ccc2N)cn1 [Compound I-139] |  | > 25000 | 180 | 
12 | Nc1ccc(-c2ccc(F)nc2)nc1NC(=O)c1cnc(C2CC2)cn1 [Compound I-157] | 7 | > 25000 |  | 
13 | Nc1ccc(-c2ccccc2)nc1NC(=O)c1cnc(C2CC2)cn1 [Compound I-158] | 7 | > 25000 |  | 
14 | Nc1ccc(-n2cccc2)nc1NC(=O)c1ccc(C2CC2)cn1 [Compound I-160] | 6 | > 25000 |  | 
15 | CCc1cnc(C(=O)Nc2cc(-c3cnn(C)c3)ccc2N)cn1 [Compound I-250] | 5 |  | 170 | 
16 | COc1ccc(C(=O)Nc2cc(-c3cnn(C)c3)ccc2N)nn1 [Compound I-254] | 3 |  | 340 | 
17 | CC(=O)Nc1ccc(C(=O)Nc2cc(-c3ccc(F)nc3)ccc2N)nc1 [Compound I-280] | 8 |  | 50 | 
18 | CCNc1cnc(C(=O)Nc2cc(-c3ccc(F)nc3)ccc2N)cn1 [Compound I-285] |  |  | 40 | 
19 | Nc1ccc(-c2ccc(F)nc2)cc1NC(=O)c1cnc(NC2CCOCC2)cn1 [Compound I-286] |  |  | 70 | 
20 | Nc1ccc(-c2ccc(F)nc2)cc1NC(=O)c1cnc(OC2CCOCC2)cn1 [Compound I-287] |  |  | 170 | 
21 | Nc1ccc(-c2ccc(F)nc2)cc1NC(=O)c1cnc(NCC(F)(F)F)cn1 [Compound I-288] |  |  | 230 | 
22 | CC(C)Oc1ccc(C(=O)Nc2cc(-c3ccc(F)nc3)ccc2N)nn1 [Compound I-289] |  |  | 200 | 
23 | Cn1cc(-c2ccc(N)c(NC(=O)c3cnc(NC4CCOCC4)cn3)c2)cn1 [Compound I-290] |  |  | 110 | 

Row | SMILES | inhibition at up to 83.3 µM [1] [%] | IC50 at 48 h [2] [nM] | IC50 [3, 4] [nM] | IC50 ([3]; read-out: IC50 (HDAC2)) [nM]
24 | Cn1cc(-c2ccc(N)c(NC(=O)c3cnc(OC4CCOCC4)cn3)c2)cn1 [Compound I-291] |  |  | 310 | 
25 | Cn1cc(-c2ccc(N)c(NC(=O)c3cnc(NCC(F)(F)F)cn3)c2)cn1 [Compound I-292] |  |  | 170 | 
26 | CC(C)Oc1ccc(C(=O)Nc2cc(-c3cnn(C)c3)ccc2N)nn1 [Compound I-293] |  |  | 340 | 
27 | Cn1cc(-c2ccc(N)c(NC(=O)c3cnc(NCc4ccccn4)cn3)c2)cn1 [Compound I-294] |  |  | 70 | 
28 | CN(Cc1ccccn1)c1cnc(C(=O)Nc2cc(-c3cnn(C)c3)ccc2N)cn1 [Compound I-295] |  |  | 80 | 
29 | Cn1cc(-c2ccc(N)c(NC(=O)c3cnc(N4CCCOCC4)cn3)c2)cn1 [Compound I-296] |  |  | 70 | 
30 | Cn1cc(-c2ccc(N)c(NC(=O)c3cnc(N4Cc5cccnc5C4)cn3)c2)cn1 [Compound I-297] |  |  | 100 | 
31 | Nc1ccc(-n2ccc(F)c2)cc1NC(=O)c1cnc(N2CCCOCC2)cn1 [Compound I-298] |  |  | 130 | 
32 | CN(C)c1cnc(C(=O)Nc2cc(-n3ccc(F)c3)ccc2N)cn1 [Compound I-299] |  |  | 120 | 
33 | Nc1ccc(-n2ccc(F)c2)cc1NC(=O)c1cnc(N2CCC2)cn1 [Compound I-300] |  |  | 70 | 
34 | CC(C)Nc1cnc(C(=O)Nc2cc(-n3ccc(F)c3)ccc2N)cn1 [Compound I-301] |  |  | 310 | 
35 | Nc1ccc(-n2ccc(F)c2)cc1NC(=O)c1cnc(NCc2ccccn2)cn1 [Compound I-302] |  |  | 80 | 
36 | Nc1ccc(-c2ccc(F)nc2)cc1NC(=O)c1cnc(N2CCOCC2)cn1 [Compound I-303] |  |  | 70 | 
37 | CCNc1cnc(C(=O)Nc2cc(-c3cnn(C)c3)ccc2N)cn1 [Compound I-304] |  |  |  | 70
38 | CC(=O)Nc1ccc(C(=O)Nc2nc(-n3cccc3)ccc2N)nc1 [Compound I-305] |  |  |  | 130
39 | CCC(=O)Nc1ccc(C(=O)Nc2cc(-c3ccc(F)nc3)ccc2N)nc1 [Compound I-306] |  |  |  | 48
40 | CCC(=O)Nc1ccc(C(=O)Nc2cc(-c3cnn(C)c3)ccc2N)nc1 [Compound I-307] |  |  |  | 77
41 | CCC(=O)Nc1ccc(C(=O)Nc2nc(-c3ccccc3)ccc2N)nc1 [Compound I-308] |  |  |  | 280
42 | CC(=O)Nc1cnc(C(=O)Nc2cc(-c3cnn(C)c3)ccc2N)cn1 [Compound I-309] |  |  |  | 120
43 | CC(=O)Nc1cnc(C(=O)Nc2cc(-c3ccc(F)nc3)ccc2N)cn1 [Compound I-310] |  |  |  | 92
44 | CS(=O)(=O)Nc1cnc(C(=O)Nc2cc(-c3ccc(F)nc3)ccc2N)cn1 [Compound I-311] |  |  |  | 150
45 | Nc1ccc(-c2cccnc2)cc1NC(=O)c1cnc(N2CCOCC2)cn1 [Compound I-312] |  |  |  | 45
